Values after ≈ are worked out from the molar mass of the structure shown.
What was measured:
[1] = tested on: indigenous bacteria in human sebum; experiment: Human sebum assay, bactericidal activity; format: cell-based; details: 250 Micromolar peptide, 150 minutes at 37° C; none: 8500000
Method: Sebum was harvested from healthy human volunteers using Biore® deep cleansing pore strips. The seburn plugs were collected in a microtube with a tweezer. […] The seburn was resusupended in 1% TSB, 10 mM Na2HPO4 into fine particulate suspension. The assay was performed in a total volume of 50 microliters. […] The samples were incubated for 150 minutes at 37° C. To determine the number of viable bacteria, a serial dilution was prepared (10 fold dilutions to 1/100000). […] After incubation for 72 hours bacterial growth was documented (Alpha Innotech documentation system). The number of CFU/milliliter was determined by counting bacteria colonies. The efficacy of a peptide is indicated by the reduction of CFU/milliliter compared to the untreated control.

E. coli K12 TOP10 = details: 3 log or greater reduction in bacterial growth over 16 hours
Jurkat cells = format: cell-based; details: 16 h
Method: Toxicity of peptide compositions for mammalian cells was determined by using a metabolic viability assay. For this assay 4×10^5 HeLa cells were seeded per well into a microwell plate (50 microliters volume). Jurkat cells also were utilized in separate experiments. The cells were incubated for 16 hours at 37° C. under mammalian cell culture conditions. Two fold serial dilutions for each peptide were prepared and added to the cells (final volume 100 microliters) and incubated for 16 hours at 37° C. For each dilution series control wells containing cells without peptide were included. The metabolic activity and viability of the cells were determined by using a commercially available assay (CellTiter96 assay, Promega Corp.). According to manufacturer's protocol 20 microliters of CellTiter reagent was added to each well and incubated at 37° C. for 1-4 hours. The CellTiter assay is a commercial version of the MTT assay, which measures the conversion of a tetrazolium […] into a colored formazan salt in metabolically active cells. The formation of the formazan product can be measured at 470 nm and is generally accepted as a measure of cellular viability. The cells were incubated at 37° C. and monitored for color development. The conversion of CellTiter reagent was measured at 470 nm using a Versamax plate reader (Molecular Devices). The viability of peptide treated cells is expressed as IC50 (i.e., concentration that leads to a 50% reduction of viability relative to the untreated control). Table 7A reports IC50 values for HeLa cells cultured in OptiMEM or 10% FBS when contacted with peptide compositions from Table 3, and Table 7B reports IC50 values for HeLa cells or Jurkat cells contacted with peptide compositions from Table 3.

[2] = tested on: E. coli K12 55099 (protease neg.); details: 3 log or greater reduction in bacterial growth over 16 hours

**Q.** `CSCC[C@@H](NC(=O)[C@@H](Cc1ccccc1)NC(=O)[C@@H](CC(N)=O)NC(=O)[C@@H](CCCNC(=N)N)NC(=O)[C@@H](CO)NC(=O)[C@@H](Cc1c[nH]c2ccccc12)NC(=O)[C@@H](CC(=O)O)NC(=O)[C@@H](CCCNC(=N)N)NC(=O)[C@@H](Cc1c[nH]c2ccccc12)NC(=O)[C@@H](CCCNC(=N)N)NC(=O)[C@@H](CO)NC(=O)[C@@H](CCCNC(=N)N)NC(=O)CNC(=O)[C@H](NC(=O)[C@@H](CCCNC(=N)N)NC(=O)[C@@H](CO)NC(=O)[C@H](NC(=O)[C@@H](CCCNC(=N)N)NC(=O)[C@H](NC(C)=O)[C@H](C)O)C(C)C)[C@H](C)O)C(=O)N[C@H](CCCNC(=N)N)C(=O)N[C@H](C)C(=O)N[C@H](C)C(N)=O` [Peptide 30, Ac-trvsrtgrsrwrdwsrnfmraa-NH2] was tested. Which “Bactericidal activity for indigenous bacteria in human sebum, cfu/ml” value [1] did it give?
**A.** 1000 cfu/ml

**Q.** And the “Minimum inhibitory concentration (MIC) E. coli Top10” value (E. coli K12 TOP10)?
**A.** 4 µM (≈ 11.2 µg/mL)

**Q.** And the IC50 (Jurkat cells)?
**A.** > 100 µM

**Q.** What about the “Minimum inhibitory concentration (MIC) E. coli 55099” value [2] of the same compound?
**A.** 2 µM (≈ 5.59 µg/mL)

From patent US20050282755A1, “Compositions having antimicrobial activity and uses thereof” (priority 2004, published 2005)
